# Measurements as given in patent US6858622B2, “Cycloalkano-indole and -azaindole derivatives” (Bayer Aktiengesellschaft, priority 1994, dated 2005).
# Assays:
# [1] = tested on: VLDL secretion; assay: Determination of the VLDL secretion in vivo in the hamster (Triton WR-1339 triglyceride rise); design: species or system golden hamsters; settings: Mesocricetus auratus, po, VLDL secretion measured as triglyceride rise after Triton WR-1339
# Method: 2. Determination of the VLDL Secretion In Vivo in the Hamster
# The effect of the test substances on VLDL secretion in vivo is investigated in the hamster. To do this, golden hamsters are anaesthetized with Ketaset (83 mg/kg s.c.) and Nembutal (50 mg/kg i.p.) after premedication with atropine ([…] s.c.). When the animals have become reflex-free, the jugular vein is exposed and cannulated. 0.25 ml/kg of a 20% strength solution of Triton WR-1339 in physiological saline solution is then administered. This detergent inhibits the lipoprotein lipase and thus leads to a rise in the triglyceride level as a result of a lack of catabolism of secreted VLDL particles. This triglyceride rise can be used as a measure of the VLDL secretion rate.
# Blood is taken from the animals before and also one and two hours after administration of the detergent by puncture of the retroorbital venous plexus. […] The triglyceride concentration in the serum thus obtained is determined with the aid of a modified commercially available enzyme test (Merckotest® triglyceride No. 14354). […] The optical density is then determined at a wavelength of 492 nm in an automatic plate-reading apparatus (SLT Spectra). […] The triglyceride concentration contained in the samples is determined with the aid of a standard curve measured in parallel. […]
# [2] = tested on: release of ApoB-100-associated lipoproteins from HepG2 cells; assay: Inhibition of the release of ApoB-100-associated lipoproteins from liver cells (HepG2, anti-LDL immunoassay); format: cell-based; settings: Homo sapiens; substance concentration at which light absorption at 450 nm (ApoB-100-associated particles in HepG2 supernatant) is inhibited by 50% vs solvent control
# Method: I. Inhibition of the Release of ApoB-100-Associated Lipoproteins
# The test for detecting the inhibition of the release of ApoB-100-associated lipoproteins from liver cells was carried out in vitro using cultured liver cells, preferably using cells of the human line HepG2. These cells are cultured under standard conditions in medium for the culture of eukaryotic cells, preferably in RPMI 1640 with 10% foetal calf serum. HepG2 cells synthesize and secrete into the culture supernatant ApoB-100-associated lipoprotein particles which in principle are built up in a similar manner to the VLDL and LDL particles which are to be found in the plasma.
# These particles can be detected using an immunoassay for human LDL. This immunoassay is carried out using antibodies which have been induced against human LDL in rabbits under standard conditions. The anti-LDL antibodies (rabbit anti-LDL Ab) were purified by affinity chromatography on an immunosorbent using human LDL. […] The immune complex located on the plastic surface is detected using monoclonal antibodies which have been induced against human LDL and purified according to standard conditions. […] After acidification of the reaction mixture with H2SO4, the specific light absorption at 450 nm is determined, which is a measure of the amount of ApoB-100-associated particles which have been secreted into the culture supernatant by the HepG2 cells. […]
IC50 [2] [nM],SMILES,ED50 [1] [mg/kg]
,"Cc1cc(C)c2c3c(n(Cc4ccc(C(C(=O)N[C@@H](CO)c5ccccc5)C5CCCC5)cc4)c2n1)CCCC3 (single isomer, unassigned) [Ex. No. 2]",10 to 15
28,"Cc1cc(C)c2c3c(n(Cc4ccc(C(C(=O)N[C@@H](CO)c5ccccc5)C5CCCC5)cc4)c2n1)CCCC3 (stereo partly drawn) [Ex. No. 1, 2-S— and 2-(R)-2-[4-(2,4Dimethyl-5,6,7,8-tetrahydro-α-carbolin-9-yl)-methyl-phenyl]-2-cyclopentyl-acetic acid N—[(R)-phenylglycinolamide]]",
